# PubChem BioAssay (NCI)
#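 Exposure lasted 48 hours, with cells grown in 96-well plates and compounds tested at five concentrations. At the GI50, growth is halved. TGI is the concentration that stops growth completely.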
# How the values were obtained:
# Assay in all cases: DTP human tumour cell line panel, 48 h
# U251 CNS = test system: U251 CNS
# RPMI-8226 leukemia = test system: RPMI-8226 leukemia
# OVCAR-4 ovarian = test system: OVCAR-4 ovarian
# OVCAR-3 ovarian = test system: OVCAR-3 ovarian
# HCC-2998 colon = test system: HCC-2998 colon
# SF-268 CNS = test system: SF-268 CNS
# SF-539 CNS = test system: SF-539 CNS
# IGROV1 ovarian = test system: IGROV1 ovarian
# NCI-H23 lung = test system: NCI-H23 lung
# KM12 colon = test system: KM12 colon
# COLO 205 colon = test system: COLO 205 colon
# SK-MEL-2 melanoma = test system: SK-MEL-2 melanoma
# A498 renal = test system: A498 renal
# TK-10 renal = test system: TK-10 renal
# CCRF-CEM leukemia = test system: CCRF-CEM leukemia
# SR leukemia = test system: SR leukemia
# HOP-92 NSCLC = test system: HOP-92 NSCLC
# K-562 leukemia = test system: K-562 leukemia
# SK-MEL-5 melanoma = test system: SK-MEL-5 melanoma
# HT29 colon = test system: HT29 colon
# UACC-257 melanoma = test system: UACC-257 melanoma
# SNB-19 CNS = test system: SNB-19 CNS
# PC-3 prostate = test system: PC-3 prostate
# SN12C renal = test system: SN12C renal
# ACHN renal = test system: ACHN renal
# NCI/ADR-RES ovarian = test system: NCI/ADR-RES ovarian
# SNB-75 CNS = test system: SNB-75 CNS
# RXF 393 renal = test system: RXF 393 renal
smiles,measurement,setting,value
CN1CCN(C(=O)[C@@]2(C)CC[C@]3(C)CC[C@]4(C)C(=CC[C@@H]5[C@@]6(C)CC[C@H](OC(=O)c7cccnc7)C(C)(C)[C@@H]6CC[C@]54C)[C@@H]3C2)CC1,GI50,U251 CNS,1570 nM
same,TGI,U251 CNS,2950 nM
same,GI50,RPMI-8226 leukemia,1870 nM
same,TGI,RPMI-8226 leukemia,5.81 µM
same,GI50,OVCAR-4 ovarian,1780 nM
same,TGI,OVCAR-4 ovarian,3.59 µM
same,GI50,OVCAR-3 ovarian,1740 nM
same,TGI,OVCAR-3 ovarian,3.29 µM
same,GI50,HCC-2998 colon,1810 nM
same,TGI,HCC-2998 colon,3.33 µM
same,GI50,SF-268 CNS,1840 nM
same,TGI,SF-268 CNS,3.85 µM
same,GI50,SF-539 CNS,1600 nM
same,TGI,SF-539 CNS,3.06 µM
same,GI50,IGROV1 ovarian,1930 nM
same,TGI,IGROV1 ovarian,3.89 µM
same,GI50,NCI-H23 lung,1620 nM
same,TGI,NCI-H23 lung,3.39 µM
same,GI50,KM12 colon,1900 nM
same,TGI,KM12 colon,3.64 µM
same,GI50,COLO 205 colon,1830 nM
same,TGI,COLO 205 colon,3.94 µM
same,GI50,SK-MEL-2 melanoma,13.2 µM
same,TGI,SK-MEL-2 melanoma,28.6 µM
same,GI50,A498 renal,4.38 µM
same,TGI,A498 renal,18.4 µM
same,GI50,TK-10 renal,1790 nM
same,TGI,TK-10 renal,3.31 µM
same,GI50,CCRF-CEM leukemia,2350 nM
same,TGI,CCRF-CEM leukemia,6.45 µM
same,GI50,SR leukemia,937 nM
same,TGI,SR leukemia,4.08 µM
same,GI50,HOP-92 NSCLC,1380 nM
same,TGI,HOP-92 NSCLC,3.2 µM
same,GI50,K-562 leukemia,2150 nM
same,TGI,K-562 leukemia,6.36 µM
same,GI50,SK-MEL-5 melanoma,1650 nM
same,TGI,SK-MEL-5 melanoma,3.02 µM
same,GI50,HT29 colon,1060 nM
same,TGI,HT29 colon,2690 nM
same,GI50,UACC-257 melanoma,1830 nM
same,TGI,UACC-257 melanoma,3.53 µM
same,GI50,SNB-19 CNS,1740 nM
same,TGI,SNB-19 CNS,3.53 µM
same,GI50,PC-3 prostate,1610 nM
same,TGI,PC-3 prostate,3.54 µM
same,GI50,SN12C renal,1560 nM
same,TGI,SN12C renal,3.15 µM
same,GI50,ACHN renal,1880 nM
same,TGI,ACHN renal,3.39 µM
same,GI50,NCI/ADR-RES ovarian,1750 nM
same,TGI,NCI/ADR-RES ovarian,3.72 µM
same,GI50,SNB-75 CNS,1320 nM
same,TGI,SNB-75 CNS,2630 nM
same,GI50,RXF 393 renal,1660 nM
same,TGI,RXF 393 renal,3.33 µM
